The results in this text go back to patent US12559492B2, “BRAF degraders” (C4 Therapeutics, Inc., priority 2020, dated 2026).

In this assay the target is BRAF^V600E protein (Homo sapiens, UniProt P15056, V600E). Nature of the assay: HiBiT cellular BRAF V600E degradation assay. Format: cell-based. To be noted: 24 h incubation; for DC50: A375.10 cells (HiBiT tag knocked in at N-terminal of BRAF V600E), concentration at which 50% of total cellular BRAF V600E is degraded; for Emax: read-out: HiBit 24 h Emax. In general terms: With HiBiT, luminescence reflects the tagged protein that the partner subunit can reach.

Setting [1] is: A375.10 cells, Emax = amount of residual protein remaining in the cell after compound treatment.

BRAF^V600E protein, sequence (P15056 whole entry V600E): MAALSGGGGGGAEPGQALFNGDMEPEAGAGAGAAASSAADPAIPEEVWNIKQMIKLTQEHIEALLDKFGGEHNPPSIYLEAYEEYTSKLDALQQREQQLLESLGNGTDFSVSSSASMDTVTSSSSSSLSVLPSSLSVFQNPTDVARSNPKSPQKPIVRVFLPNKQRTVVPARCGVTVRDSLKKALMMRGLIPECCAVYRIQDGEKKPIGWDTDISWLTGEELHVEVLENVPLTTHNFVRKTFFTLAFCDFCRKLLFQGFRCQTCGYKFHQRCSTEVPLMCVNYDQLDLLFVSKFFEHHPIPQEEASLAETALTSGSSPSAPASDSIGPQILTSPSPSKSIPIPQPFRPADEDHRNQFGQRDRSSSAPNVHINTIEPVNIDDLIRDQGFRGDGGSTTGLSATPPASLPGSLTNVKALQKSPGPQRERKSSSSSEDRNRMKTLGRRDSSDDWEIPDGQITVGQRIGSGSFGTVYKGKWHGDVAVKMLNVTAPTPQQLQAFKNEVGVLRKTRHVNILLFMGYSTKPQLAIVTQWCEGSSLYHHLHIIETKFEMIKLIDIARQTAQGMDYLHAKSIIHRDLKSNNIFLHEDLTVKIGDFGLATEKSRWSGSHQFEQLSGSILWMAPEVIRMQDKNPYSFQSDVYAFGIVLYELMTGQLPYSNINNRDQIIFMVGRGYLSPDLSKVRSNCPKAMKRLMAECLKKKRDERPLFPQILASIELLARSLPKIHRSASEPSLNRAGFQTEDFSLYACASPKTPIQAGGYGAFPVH

The molecule `CC(C)S(=O)(=O)Nc1ccc(F)c(C(=O)c2c[nH]c3ncc(-c4ccc(N5CCN(C(=O)CN6CCC(c7ccc(NC8CCC(=O)NC8=O)cc7)CC6)CC5)nc4)cc23)c1F` (stereo not drawn) [Example 11, N-[3-[5-[6-[4-[2-[4-[4-[(2,6-dioxo-3-piperidyl)amino]phenyl]-1-piperidyl]acetyl]piperazin-1-yl]-3-pyridyl]-1H-pyrrolo[2,3-b]pyridine-3-carbonyl]-2,4-difluoro-phenyl]propane-2-sulfonamide] displayed a DC50 of 5.08 nM. In addition, the Emax under setting [1] was 7.97%.
On to `CCN(C)S(=O)(=O)Nc1ccc(F)c(C(=O)c2c[nH]c3ncc(-c4cnc(N5CCN(C(=O)CC6(O)CCN(c7ccc(N8CCC(=O)NC8=O)cc7Cl)CC6)CC5)nc4)cc23)c1F` [Example 213, 5-[2-[4-[2-[1-[2-chloro-4-(2,4-dioxohexahydropyrimidin-1-yl)phenyl]-4-hydroxy-4-piperidyl]acetyl]piperazin-1-yl]pyrimidin-5-yl]-3-[3-[[ethyl(methyl)sulfamoyl]amino]-2,6-difluoro-benzoyl]-1H-pyrrolo[2,3-b]pyridine], for which the DC50 is 0.42 nM. Moreover, the maximal response (Emax) under setting [1] was determined as 6.06%.
In turn, `CCCS(=O)(=O)Nc1ccc(F)c(C(=O)c2c[nH]c3ncc(-c4cnc(N5CCN(C(=O)CN6CCC(c7ccc(OC8CCC(=O)NC8=O)cc7)CC6)CC5)nc4)cc23)c1F` (stereo not drawn) [Example 2, N-[3-[5-[2-[4-[2-[4-[4-[(2,6-dioxo-3-piperidyl)oxy]phenyl]-1-piperidyl]acetyl]piperazin-1-yl]pyrimidin-5-yl]-1H-pyrrolo[2,3-b]pyridine-3-carbonyl]-2,4-difluoro-phenyl]propane-1-sulfonamide] gave a DC50 of 12.2 nM. In addition, under setting [1], the Emax amounted to 7.81%.
As for `CCN(C)S(=O)(=O)Nc1ccc(F)c(C(=O)c2c[nH]c3ncc(-c4ccc(N5CCN(C(=O)CN6CCC(c7ccc(OC8CCC(=O)NC8=O)cn7)CC6)CC5)nc4)cc23)c1F` (stereo not drawn) [Example A45, 5-[6-[4-[2-[4-[5-(2,6-Dioxopiperidin-3-yl)oxypyridin-2-yl]piperidin-1-yl]acetyl]piperazin-1-yl]pyridin-3-yl]-3-[3-[[ethyl(methyl)sulfamoyl]amino]-2,6-difluorobenzoyl]-1H-pyrrolo[2,3-b]pyridine], the DC50 was found to be 65 nM. The maximal response (Emax) under setting [1] was 21%.
`CCN(C)S(=O)(=O)Nc1ccc(F)c(C(=O)c2c[nH]c3ncc(-c4ccc(N5CCN(C(=O)CC6(O)CCN(c7ccc(NC8CCC(=O)NC8=O)cc7)CC6)CC5)cc4)cc23)c1F` (stereo not drawn) [Example 86, 5-[4-[4-[2-[1-[4-[(2,6-dioxo-3-piperidyl)amino]phenyl]-4-hydroxy-4-piperidyl]acetyl]piperazin-1-yl]phenyl]-3-[3-[[ethyl(methyl)sulfamoyl]amino]-2,6-difluoro-benzoyl]-1H-pyrrolo[2,3-b]pyridine] yielded a DC50 of 4.29 nM. In addition, the Emax under setting [1] amounted to 11.8%.
Taken in the same sequence, the figures for `CCN(C)S(=O)(=O)Nc1ccc(F)c(C(=O)c2c[nH]c3ncc(-c4cnc(N5CCN(C(=O)CC6(O)CCN(c7ccc(NC8CCC(=O)NC8=O)cc7Cl)CC6)CC5)nc4)cc23)c1F` (stereo not drawn) [Example 157, 5-[2-[4-[2-[1-[2-chloro-4-[(2,6-dioxo-3-piperidyl)amino]phenyl]-4-hydroxy-4-piperidyl]acetyl]piperazin-1-yl]pyrimidin-5-yl]-3-[3-[[ethyl(methyl)sulfamoyl]amino]-2,6-difluoro-benzoyl]-1H-pyrrolo[2,3-b]pyridine] were 6.19 nM and 8.52%.
Taken in the same sequence, the figures for `CCN(C)S(=O)(=O)Nc1ccc(F)c(C(=O)c2c[nH]c3ncc(-c4ccc(N5CCN(C(=O)CN6CCC(c7ccc(OC8CCC(=O)NC8=O)cc7)CC6)CC5)cc4)cc23)c1F` (stereo not drawn) [Example A14, 5-[4-[4-[2-[4-[4-(2,6-Dioxopiperidin-3-yl)oxyphenyl]piperidin-1-yl]acetyl]piperazin-1-yl]phenyl]-3-[3-[[ethyl(methyl)sulfamoyl]amino]-2,6-difluorobenzoyl]-1H-pyrrolo[2,3-b]pyridine] were 10.6 nM and 9.74%.
Taken in the same sequence, the figures for `CCN(C)S(=O)(=O)Nc1ccc(F)c(C(=O)c2c[nH]c3ncc(-c4cnc(N5CCC(NC(=O)CN6CCC(c7ccc(NC8CCC(=O)NC8=O)cn7)CC6)CC5)nc4)cc23)c1F` (stereo not drawn) [Example A58, 2-[4-[5-[(2,6-dioxopiperidin-3-yl)amino]pyridin-2-yl]piperidin-1-yl]-N-[1-[5-[3-[3-[[ethyl(methyl)sulfamoyl]amino]-2,6-difluorobenzoyl]-1H-pyrrolo[2,3-b]pyridin-5-yl]pyrimidin-2-yl]piperidin-4-yl]acetamide; formic acid] were 43 nM and 13%.
In turn, `CCN(C)S(=O)(=O)Nc1ccc(F)c(C(=O)c2c[nH]c3ncc(-c4cnc(N5CCN(C(=O)CN6CCC(c7ccc(NC8CCC(=O)NC8=O)cc7C#N)CC6)CC5)nc4)cc23)c1F` (stereo not drawn) [Example 40, 5-[2-[4-[2-[4-[2-cyano-4-[(2,6-dioxo-3-piperidyl)amino]phenyl]-1-piperidyl]acetyl]piperazin-1-yl]pyrimidin-5-yl]-3-[3-[[ethyl(methyl)sulfamoyl]amino]-2,6-difluoro-benzoyl]-1H-pyrrolo[2,3-b]pyridine] yielded a 50% degradation concentration (DC50) of 11.7 nM. In addition, under setting [1], the Emax is 8.42%.
For `CCN(C)S(=O)(=O)Nc1ccc(F)c(C(=O)c2c[nH]c3ncc(-c4ccc(CN5CCC(C(=O)N6CCN(c7ccc(OC8CCC(=O)NC8=O)cc7)CC6)C5)cc4)cc23)c1F` (stereo not drawn) [Example A19, 5-[4-[[3-[4-[4-(2,6-Dioxopiperidin-3-yl)oxyphenyl]piperazine-1-carbonyl]pyrrolidin-1-yl]methyl]phenyl]-3-[3-[[ethyl(methyl)sulfamoyl]amino]-2,6-difluorobenzoyl]-1H-pyrrolo[2,3-b]pyridine], the 50% degradation concentration (DC50) turned out to be 84 nM. In addition, under setting [1], the Emax was found to be 19%.
For `CCN(C)S(=O)(=O)Nc1ccc(F)c(C(=O)c2c[nH]c3ncc(-c4ccc(N5CCN(C(=O)CN6CCC(c7ccc(O[C@@H]8CCC(=O)NC8=O)cc7)CC6)CC5)nc4)cc23)c1F` [Example 74, 5-[6-[4-[2-[4-[4-[[(3R)-2,6-dioxo-3-piperidyl]oxy]phenyl]-1-piperidyl]acetyl]piperazin-1-yl]-3-pyridyl]-3-[3-[[ethyl(methyl)sulfamoyl]amino]-2,6-difluoro-benzoyl]-1H-pyrrolo[2,3-b]pyridine], the half-maximal degradation concentration (DC50) was determined as 32.5 nM. For the same molecule, the “HiBit 24 h Emax” value under setting [1] is on record as 9.07%.
`CCN(C)S(=O)(=O)Nc1ccc(F)c(C(=O)c2c[nH]c3ncc(-c4ccc(N5CCN(C(=O)CCCN6CCC(c7ccc(C8CCC(=O)NC8=O)cc7)CC6)CC5)nc4)cc23)c1F` (stereo not drawn) [Example A81, 5-[6-[4-[4-[4-[4-(2,6-Dioxopiperidin-3-yl)phenyl]piperidin-1-yl]butanoyl]piperazin-1-yl]pyridin-3-yl]-3-[3-[[ethyl(methyl)sulfamoyl]amino]-2,6-difluorobenzoyl]-1H-pyrrolo[2,3-b]pyridine] showed a half-maximal degradation concentration (DC50) of 49 nM. In addition, the maximum response (Emax) under setting [1] stood at 13%.
Molecule `O=C1CCC(Oc2ccc(C3CCN(CC(=O)N4CCN(c5ccc(-c6cnc7[nH]cc(C(=O)c8c(F)ccc(NS(=O)(=O)N9CCCC9)c8F)c7c6)cc5)CC4)CC3)cc2)C(=O)N1` (stereo not drawn) [Example A50, N-[3-[5-[4-[4-[2-[4-[4-(2,6-Dioxopiperidin-3-yl)oxyphenyl]piperidin-1-yl]acetyl]piperazin-1-yl]phenyl]-1H-pyrrolo[2,3-b]pyridine-3-carbonyl]-2,4-difluorophenyl]pyrrolidine-1-sulfonamide] came in with a DC50 of 15 nM. Besides, the maximum response (Emax) under setting [1] was 12%.
With `CCN(C)S(=O)(=O)Nc1ccc(F)c(C(=O)c2c[nH]c3ncc(-c4ccc(N5CCN(C(=O)CCCN6CCC(c7ccc(NC8CCC(=O)NC8=O)cc7)CC6)CC5)nc4)cc23)c1F` (stereo not drawn) [Example A17, 5-[6-[4-[4-[4-[4-[(2,6-Dioxopiperidin-3-yl)amino]phenyl]piperidin-1-yl]butanoyl]piperazin-1-yl]pyridin-3-yl]-3-[3-[[ethyl(methyl)sulfamoyl]amino]-2,6-difluorobenzoyl]-1H-pyrrolo[2,3-b]pyridine], the DC50 was 44 nM. Under setting [1], the maximal response (Emax) worked out at 14%.
In the case of `[2H][C@@]1(c2ccc(N3CCC(O)(CC(=O)N4CCN(c5ncc(-c6cnc7[nH]cc(C(=O)c8c(F)ccc(NS(=O)(=O)N(C)CC)c8F)c7c6)cn5)CC4)CC3)c(F)c2)CCC(=O)NC1=O` (single isomer, unassigned) [Example 158c], half-maximal degradation (DC50) was put at 1.99 nM. Moreover, the maximum response (Emax) under setting [1] was 7.84%.
For the molecule `CCN(C)S(=O)(=O)Nc1ccc(F)c(C(=O)c2c[nH]c3ncc(-c4ccc(N5CCN(C(=O)CCCN6CCC(c7ccc(OC8CCC(=O)NC8=O)cc7)CC6)CC5)nc4)cc23)c1F` (stereo not drawn) [Example A2, 5-[6-[4-[4-[4-[4-(2,6-Dioxopiperidin-3-yl)oxyphenyl]piperidin-1-yl]butanoyl]piperazin-1-yl]pyridin-3-yl]-3-[3-[[ethyl(methyl)sulfamoyl]amino]-2,6-difluorobenzoyl]-1H-pyrrolo[2,3-b]pyridine], the half-maximal degradation concentration (DC50) worked out at 66 nM. Further, the maximum response (Emax) under setting [1] is 22%.
`CCN(C)S(=O)(=O)Nc1ccc(F)c(C(=O)c2c[nH]c3ncc(-c4cnc(N5CCN(C(=O)CN6CCC(c7ccc(NC8CCC(=O)NC8=O)cc7)CC6)CC5)nc4)c(C)c23)c1F` (stereo not drawn) [Example 65, 5-[2-[4-[2-[4-[4-[(2,6-dioxo-3-piperidyl)amino]phenyl]-1-piperidyl]acetyl]piperazin-1-yl]pyrimidin-5-yl]-3-[3-[[ethyl(methyl)sulfamoyl]amino]-2,6-difluoro-benzoyl]-4-methyl-1H-pyrrolo[2,3-b]pyridine] gave a DC50 of 9.97 nM. Further, the Emax under setting [1] came to 3.79%.
`CCN(C)S(=O)(=O)Nc1ccc(F)c(C(=O)c2c[nH]c3ncc(-c4ccc(N5CCC(NC(=O)CN6CCC(c7ccc(OC8CCC(=O)NC8=O)cn7)CC6)CC5)cc4)cc23)c1F` (stereo not drawn) [Example A64, 2-[4-[5-(2,6-Dioxopiperidin-3-yl)oxypyridin-2-yl]piperidin-1-yl]-N-[1-[4-[3-[3-[[ethyl(methyl)sulfamoyl]amino]-2,6-difluorobenzoyl]-1H-pyrrolo[2,3-b]pyridin-5-yl]phenyl]piperidin-4-yl]acetamide;formic acid] came in with a DC50 of 67 nM. Under setting [1], the Emax came out at 13%.

Broadly, the DC50 is the midpoint of the concentration-degradation curve. A higher DC50 goes with a less potent degrader. What is called Emax is the size of the effect at its maximum, as opposed to the concentration needed.
